In one data set the test system is hyaluronic acid in skin. Nature of the data set: Influence of orally administered NAG on hyaluronic acid content in skin. The class given is in vivo, hairless rats. Particulars: for Hyaluronic acid content, Epidermis / Hyaluronic acid content, Corium: hairless rats; for Hyaluronic acid content, Epidermis: 4 weeks (0 mg/kg/day: 31.25); for Hyaluronic acid content, Corium: 4 weeks (0 mg/kg/day: 462.7). The procedure: Using hairless rats, influence of orally administered NAG on the content of hyaluronic acid in skin was tested. The NAG prepared in PREPARATION EXAMPLE 1 was mixed to a basic feed (Solid feed MF, manufactured by Oriental Kobo Kogyo Kabushiki Kaisha), and rats were permitted to freely ingest the mixture so that the substantial administered amount of NAG would be 0, 20 or 200 mg/kg of body weight/day. Administration was continued for 4 weeks from 9 week instar to 13 week instar, and the hyaluronic acid amounts in skin layer were measured separately for epidermis and corium. In this connection, the measurement of the hyaluronic acid was carried out in accordance with a hyaluronic acid measurement kit (manufactured by Chugai Shindanyaku Co.).

Data set [1] is described as follows: NAG kinetics study with 14C labelled NAG. The class given is in vivo. Conditions: rats, single forced oral 250 mg/kg of body weight. The procedure: A mixture of ^14C labelled NAG (1 st-position carbon atom-labelled product: manufactured by Amasham Life Science Co.) and unlabelled NAG (the one prepared in PREPARATION EXAMPLE 1) was given to rats by single forced oral administration (250 mg/kg of body weight) for in vivo kinetics study. […] About 60% of the administered NAG was utilized as an energy source and excreted as CO2 to expiration. Further, about 20% was excreted to urine and stool.

Data set [2] can be described thus: Heat treatment stability (coloration or decomposition). It is filed as physicochemical. Particulars: pH of 2 to 8 at 100° C. for 1 hour. The source says: In the present invention, as a carrier for the skin care agent, foods such as confectioneries, powdered soups, dairy products and beverages, may, for example, be mentioned. As such foods, specifically, gum, candies, tabletted confectioneries, chocolate, jelly, cookies, snacks, corn potage soup, consomme soup, milk, pudding, yogurt, ice cream, lactic acid beverages, alcohol beverages, vitamin beverages, mineral beverages, coffee beverages, near water, nutrition drinks, and the like, may be mentioned.

For the molecule `CC(=O)N[C@H]1C(O)O[C@H](CO)[C@@H](O)[C@@H]1O` (stereo partly shown) [NAG, N-acetylglucosamine], in the data set with hyaluronic acid in skin (hairless rats, 0, 20 or 200 mg/kg/day, 4 weeks), the “hyaluronic acid contents in epidermis and corium versus administered amount” value is listed as “tend to increase together in proportion to the administered amounts”. In addition, in the data set with hyaluronic acid in skin (NAG 20 mg/kg/day in feed), the “Hyaluronic acid content, Epidermis” value worked out at 33.77 μg/g dried tissue and the “Hyaluronic acid content, Corium” value was found to be 506.6 μg/g dried tissue. Besides, in the data set with hyaluronic acid in skin (NAG 200 mg/kg/day in feed), the “Hyaluronic acid content, Epidermis” value worked out at 35.09 μg/g dried tissue and the “Hyaluronic acid content, Corium” value was 549.8 μg/g dried tissue. Further, in data set [1], the “absorption after oral administration” value is “rapidly absorbed”; the “share excreted to urine and stool” value is reported as “about 20%”; the “time at which average concentration of radioactivity in blood reached the maximum value” was found to be 4 h. Also, the “residual transferred to tissues (e.g. cartilaginous and fatty tissues)” value in data set [1] (autoradiography and tissue radioactivity) is “about 20%”. The “coloration or decomposition on heat treatment” value in data set [2] was “not to show coloration or decomposition”.
